Data on three compounds can be found in US10076504B2, “Glucagon antagonists” (Ligand Pharmaceuticals, Inc., priority 2014, dated 2018).

For data set [1], the target named is T1, human glucagon receptor (Homo sapiens, UniProt P47871).
T1 construct: host or cells: Either human liver membranes or membranes of an unnamed recombinant cell line
In words: Human glucagon receptor binding assay. To be noted: displacement of [125I]glucagon from human glucagon receptor; read-out: Hu IC50. How it is done:
Compounds provided herein are dissolved in a suitable solvent (e.g., dimethylsulfoxide) at a concentration of 10 mM and then diluted in buffer (e.g., 50 mM Hepes, pH 7.4, 5 mM MgCl2, 1 mM CaCl2, and 0.2% BSA) to concentrations ranging from 1 nM to 100 μM. Compounds (20 μL/well) and [^125I]glucagon at the final concentration of 0.125 nM (20 μl/well) (Perkin Elmer) are added to and mixed in wells of a 96-well plate (Costar, Corning) containing 120 μL of buffer. Next, an appropriate aliquot of a membrane preparation containing the human glucagon receptor (isolated from human liver samples or obtained from a recombinant cell line) is added to the wells. The binding mixtures are incubated for 2 hrs at room temperature. In the meantime, a MultiScreen 96-well filter plate (Millipore) is treated with 200 μL of the buffer, which is vacuumed through the filter just before the binding mixtures are transferred to the plate. At the end of incubation, binding mixtures are transferred to the wells of the MultiScreen 96-well filter plate and filtered through by applying vacuum. The plate is washed once with 200 μL per well of the buffer, and the filters are dried and counted using a gamma counter.
The column marked “stereo” indicates whether the tested compound tested was racemic or the R-isomer (rac=racemic).

The nature of data set [2]: Single ascending dose study, safety and tolerability. Format: in vivo, human. To be noted: single oral doses 2 to 480 mg in NHV, 40 mg in T2DM subjects. How it is done: (§1) Oral doses of IIIa were administered to normal healthy volunteers (NHV) and subjects with type 2 diabetes mellitus (T2DM). A single center, randomized, double-blind, placebo-controlled single ascending dose study was done in both NHV (n=48) and T2DM subjects (n=8). Dose escalation only occurred after review of safety and tolerability data from previous dose levels (n=8/cohort; 2-placebo & 6-IIIa). Dosing of the T2DM cohort was initiated only after the equivalent dose had been administered to NHV and safety data had been reviewed. All subjects were administered IIIa in the morning after an overnight fast with the exception of the NHV in the 40 mg cohort. NHV subjects in the 40 mg cohort initially received IIIa in a fasted state. Following a 3 week washout period, IIIa was readministered after breakfast at 40 mg to determine the effects of food consumption on pharmacokinetics.
(§2) This was a single center, randomized, double-blind, placebo-controlled single ascending dose study in both normal healthy volunteers (NHV) (n=48) and subjects with type 2 diabetes mellitus (T2DM) (n=8). All subjects were administered Formula IIIa as a solution formulated with Captisol® after an overnight fast with the exception of the NHV in the 40 mg cohort. The NHV 40 mg cohort initially received Formula IIIa in a fasted state. Following a washout period, subjects received 40 mg Formula IIIa after breakfast to explore the effects of food consumption on pharmacokinetics.
In type 2 diabetes mellitus (T2DM), inappropriately elevated levels of glucagon exacerbate hyperglycemia and its associated complications. Not wishing to be bound to a particular theory, it has been observed that antagonism of glucagon action reduces blood glucose levels and hemoglobin A1c in patients with T2DM. The novel, selective, orally bioavailable glucagon receptor antagonist, Formula IIIa (below), was investigated regarding its pharmacokinetics (PK), safety, and pharmacodynamics (PD) in a first-in-human, ascending, single-dose, double blind, placebo-controlled study in normal healthy (NH) and T2DM subjects (NCT01919684).

The nature of data set [3]: Single ascending dose study, pharmacokinetics. Format: in vivo, human. To be noted: 2 to 480 mg oral, human subjects. How it is done:
as §1, §2
Plasma levels of Formula IIIa were measured by validated LC-MS/MS method. Formula IIIa was well absorbed after oral administration with peak plasma concentrations reached approximately 5-8 hours post dose. Consistent with preclinical predictions, clearance was slow and Formula IIIa was not detected in the urine.

The nature of data set [4]: Solubility in water, buffers, simulated fluids and Captisol. Format: physicochemical. To be noted: thermodynamic from solid; for solubility: aqueous with cosolvent or surfactant or cyclodextrin, ambient conditions, UV after 2-3day equilibration; for solubility at 24 h: 25° C., HPLC after 24-hour equilibration. How it is done:
Solubility of a sodium salt of Formula IIIa (below) was determined in water and at various pH values and simulated intestinal fluids using HPLC and UV analysis with and without modified beta-cyclodextrin (Captisol®). Phase solubility was used to estimate the Captisol®: Formula IIIa binding constant. The influence of Captisol® on oral absorption was modelled as shown below. The effect of Captisol® on solution stability was determined by HPLC. Plasma levels of Formula IIIa were measured by LCMS/MS.

Counter-ions that a name gives are not always drawn.

T1 sequence (P47871 26-477): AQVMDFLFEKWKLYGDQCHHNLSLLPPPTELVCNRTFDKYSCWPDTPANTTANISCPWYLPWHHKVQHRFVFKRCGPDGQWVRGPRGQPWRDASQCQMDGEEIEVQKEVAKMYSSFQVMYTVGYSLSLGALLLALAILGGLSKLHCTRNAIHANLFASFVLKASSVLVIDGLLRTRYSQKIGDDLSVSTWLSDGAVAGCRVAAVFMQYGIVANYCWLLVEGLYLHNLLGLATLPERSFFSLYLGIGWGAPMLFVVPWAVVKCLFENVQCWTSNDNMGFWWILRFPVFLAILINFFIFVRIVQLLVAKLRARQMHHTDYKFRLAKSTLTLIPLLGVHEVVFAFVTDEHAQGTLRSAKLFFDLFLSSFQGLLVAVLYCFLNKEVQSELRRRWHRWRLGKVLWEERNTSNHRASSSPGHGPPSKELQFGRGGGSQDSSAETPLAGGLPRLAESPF

For the compound `Cc1cc(Cl)ccc1-c1ccc(NC(=O)C(Cc2ccc(C(=O)NCCS(=O)(=O)O)cc2)c2ccc(C3CCC(C(C)(C)C)CC3)cc2)cc1` (stereo not drawn), the IC50 in data set [1] was 9 nM.

For `Cc1cc(C(F)(F)F)ccc1-c1ccc(NC(=O)C(Cc2ccc(C(=O)NCCS(=O)(=O)O)cc2)c2ccc(C3=CCC(C)(C)CC3)cc2)cc1` (racemic), the IC50 in data set [1] stood at 15 nM.

For `Cc1cc(C)c(C2C=CC(NC(=O)[C@H](Cc3ccc(C(=O)NCCS(=O)(=O)O)cc3)c3ccc(-c4ccc(C(C)(C)C)cc4)cc3)=CC2)c(C)c1` (stereo partly drawn) [Formula IIIa sodium salt], in data set [2], the tolerability entry is listed as “well tolerated”. In data set [3], the “plasma exposure versus dose” value was “dose dependent increases”. Also, the solubility in data set [4] (15% w/v Captisol) is 11530 ± 40 µg/mL; in data set [4] (35% w/v Captisol), 32900 ± 440 µg/mL. Moreover, the solubility at 24 h in data set [4] (simulated gastric fluid, 0.01N HCL) was 70 µg/mL; in data set [4] (simulated gastric fluid, 0.1N HCL), 60 µg/mL; in data set [4] (Fasted state simulated intestinal fluid (FaSSIF)), 210 µg/mL; in data set [4] (Fed state simulated intestinal fluid (FeSSIF)) it was 6540 ± 190 µg/mL; in data set [4] (Simulated gastric fluid (SGF)), 40 ± 10 µg/mL; in data set [4] (Water), 210 ± 10 µg/mL.
